Calls of active or inactive are those of the source.
Key:
Aminopeptidase N = molecular target: T1, Aminopeptidase N (Plasmodium falciparum FcB1/Columbia, UniProt O96935); assay: malaria alanyl aminopeptidase activity blockers – biochemical, fluorogenic H-Leu-NHMec substrate, 1536-well (AID 1445); design: species or system Plasmodium falciparum 3D7, 3D7
T1 sequence (O96935 whole entry): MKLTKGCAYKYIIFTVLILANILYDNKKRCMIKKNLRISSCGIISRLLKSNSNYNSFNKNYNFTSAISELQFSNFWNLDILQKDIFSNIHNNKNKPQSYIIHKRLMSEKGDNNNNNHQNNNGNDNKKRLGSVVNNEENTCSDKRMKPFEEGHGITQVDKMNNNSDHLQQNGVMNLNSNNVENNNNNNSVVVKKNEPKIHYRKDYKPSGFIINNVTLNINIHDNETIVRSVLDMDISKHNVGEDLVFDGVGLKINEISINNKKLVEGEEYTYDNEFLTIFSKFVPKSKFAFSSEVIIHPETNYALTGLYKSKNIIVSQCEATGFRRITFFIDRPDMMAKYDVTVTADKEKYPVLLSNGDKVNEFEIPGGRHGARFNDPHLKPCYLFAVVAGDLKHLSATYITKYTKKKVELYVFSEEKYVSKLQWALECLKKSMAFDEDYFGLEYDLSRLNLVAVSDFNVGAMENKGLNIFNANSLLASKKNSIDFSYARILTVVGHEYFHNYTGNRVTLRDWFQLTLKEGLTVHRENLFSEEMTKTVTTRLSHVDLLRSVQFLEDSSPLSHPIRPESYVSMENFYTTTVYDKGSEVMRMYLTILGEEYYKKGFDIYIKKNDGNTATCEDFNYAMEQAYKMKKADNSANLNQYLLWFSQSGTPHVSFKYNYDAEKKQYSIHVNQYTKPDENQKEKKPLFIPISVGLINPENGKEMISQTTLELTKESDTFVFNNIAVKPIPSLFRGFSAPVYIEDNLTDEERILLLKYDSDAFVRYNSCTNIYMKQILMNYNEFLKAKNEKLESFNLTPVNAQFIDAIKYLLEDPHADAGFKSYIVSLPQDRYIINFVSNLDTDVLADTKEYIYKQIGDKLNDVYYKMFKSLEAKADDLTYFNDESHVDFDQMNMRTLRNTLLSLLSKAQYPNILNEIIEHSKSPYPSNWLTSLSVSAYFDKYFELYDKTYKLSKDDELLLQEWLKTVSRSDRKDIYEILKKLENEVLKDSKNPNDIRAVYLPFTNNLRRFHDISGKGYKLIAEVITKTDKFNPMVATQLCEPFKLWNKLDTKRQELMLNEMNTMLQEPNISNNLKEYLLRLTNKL

[1] = molecular target: T2, Runt-related transcription factor 1/Core-binding factor subunit beta (Homo sapiens, UniProt Q01196+Q13951); assay: disruptors of Runt domain/CBFb-SMMHC interaction – biochemical, FRET, Cerulean-Runt, Venus-CBFb-SMMHC, uHTS, […] (AID 1434); format: protein assay
T2 sequence (Q01196 whole entry, the tested form may be a part): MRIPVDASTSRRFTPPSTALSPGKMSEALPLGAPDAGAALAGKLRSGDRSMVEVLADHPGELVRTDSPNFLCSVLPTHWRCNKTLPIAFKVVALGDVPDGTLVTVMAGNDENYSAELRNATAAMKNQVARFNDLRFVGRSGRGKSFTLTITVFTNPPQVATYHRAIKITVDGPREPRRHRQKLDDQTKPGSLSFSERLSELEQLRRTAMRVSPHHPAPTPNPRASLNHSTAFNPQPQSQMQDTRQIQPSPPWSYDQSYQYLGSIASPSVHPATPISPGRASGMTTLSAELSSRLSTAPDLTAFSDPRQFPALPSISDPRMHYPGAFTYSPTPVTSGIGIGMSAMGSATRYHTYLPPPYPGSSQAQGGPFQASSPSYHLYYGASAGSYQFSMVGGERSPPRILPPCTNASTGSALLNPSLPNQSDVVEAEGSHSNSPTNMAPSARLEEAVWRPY
T2 sequence (Q13951 whole entry, the tested form may be a part): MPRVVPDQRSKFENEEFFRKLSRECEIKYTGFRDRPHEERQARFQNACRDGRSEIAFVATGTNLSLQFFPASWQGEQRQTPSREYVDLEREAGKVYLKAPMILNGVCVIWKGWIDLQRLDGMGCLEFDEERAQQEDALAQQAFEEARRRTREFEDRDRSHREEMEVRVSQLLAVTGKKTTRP

[2] = molecular target: T2, Runt-related transcription factor 1/Core-binding factor subunit beta; assay: Runt domain/CBFb-SMMHC interaction disruptors – biochemical, TR-FRET (AID 1438); format: protein assay
[3] = molecular target: Intestinal-type alkaline phosphatase (Homo sapiens, UniProt P09923); assay: human intestinal alkaline phosphatase activators, dose response, biochemical, luminescence, uHTS hits (AID 463120); format: functional
Chain of Intestinal-type alkaline phosphatase (P09923 whole entry): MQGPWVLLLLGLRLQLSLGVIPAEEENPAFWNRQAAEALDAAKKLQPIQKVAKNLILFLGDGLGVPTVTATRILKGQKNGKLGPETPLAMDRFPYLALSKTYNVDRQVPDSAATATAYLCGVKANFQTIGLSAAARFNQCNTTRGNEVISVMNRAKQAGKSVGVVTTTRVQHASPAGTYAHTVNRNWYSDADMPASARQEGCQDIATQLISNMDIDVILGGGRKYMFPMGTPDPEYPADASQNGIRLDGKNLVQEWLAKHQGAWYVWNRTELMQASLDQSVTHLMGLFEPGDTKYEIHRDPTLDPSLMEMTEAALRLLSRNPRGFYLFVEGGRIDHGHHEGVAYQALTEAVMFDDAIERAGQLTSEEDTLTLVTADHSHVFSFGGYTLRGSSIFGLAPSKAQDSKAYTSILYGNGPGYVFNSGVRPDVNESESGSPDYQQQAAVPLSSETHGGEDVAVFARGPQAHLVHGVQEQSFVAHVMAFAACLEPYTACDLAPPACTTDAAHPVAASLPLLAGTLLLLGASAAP

[4] = molecular target: T3, High affinity choline transporter 1 (Homo sapiens, UniProt Q9GZV3); assay: human choline transporter blockers, potency – cell-based, 5-point CRC, membrane potential dye, dose response (AID 504840); format: functional
T3 sequence (Q9GZV3 whole entry): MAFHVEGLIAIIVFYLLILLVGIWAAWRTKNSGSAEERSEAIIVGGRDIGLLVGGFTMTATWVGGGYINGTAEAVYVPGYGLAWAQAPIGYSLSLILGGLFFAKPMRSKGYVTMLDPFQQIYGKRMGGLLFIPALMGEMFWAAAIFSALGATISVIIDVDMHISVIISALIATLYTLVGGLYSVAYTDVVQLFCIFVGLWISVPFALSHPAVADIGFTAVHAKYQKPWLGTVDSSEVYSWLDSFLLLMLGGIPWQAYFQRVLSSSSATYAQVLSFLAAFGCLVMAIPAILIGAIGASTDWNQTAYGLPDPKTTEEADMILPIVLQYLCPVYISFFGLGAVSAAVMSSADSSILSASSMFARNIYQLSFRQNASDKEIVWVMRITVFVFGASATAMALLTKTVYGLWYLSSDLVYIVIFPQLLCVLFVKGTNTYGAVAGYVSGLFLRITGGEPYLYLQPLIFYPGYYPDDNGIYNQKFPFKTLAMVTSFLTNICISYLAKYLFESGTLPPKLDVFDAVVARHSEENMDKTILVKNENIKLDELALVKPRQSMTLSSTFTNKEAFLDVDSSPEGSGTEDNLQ

Ion channel NompC = Ion channel NompC (Danio rerio, UniProt Q7T1G6); assay: Dose response cell-based high-throughput screening assay for agonists of the transient receptor potential channel N1 (TRPN1). [Related pubchem assays (depositor defined):AID1424, AID1448]; format: functional
Mucolipin-3 = molecular target: T4, Mucolipin-3 (Homo sapiens, UniProt Q8TDD5); assay: Fluorescence counterscreen assay for […] agonists: dose response cell-based high-throughput screening assay to identify agonists of the transient receptor potential channel ML3 (TRPML3). [Related pubchem assays: 1424, 1448 ]; format: functional
T4 sequence (Q8TDD5 whole entry): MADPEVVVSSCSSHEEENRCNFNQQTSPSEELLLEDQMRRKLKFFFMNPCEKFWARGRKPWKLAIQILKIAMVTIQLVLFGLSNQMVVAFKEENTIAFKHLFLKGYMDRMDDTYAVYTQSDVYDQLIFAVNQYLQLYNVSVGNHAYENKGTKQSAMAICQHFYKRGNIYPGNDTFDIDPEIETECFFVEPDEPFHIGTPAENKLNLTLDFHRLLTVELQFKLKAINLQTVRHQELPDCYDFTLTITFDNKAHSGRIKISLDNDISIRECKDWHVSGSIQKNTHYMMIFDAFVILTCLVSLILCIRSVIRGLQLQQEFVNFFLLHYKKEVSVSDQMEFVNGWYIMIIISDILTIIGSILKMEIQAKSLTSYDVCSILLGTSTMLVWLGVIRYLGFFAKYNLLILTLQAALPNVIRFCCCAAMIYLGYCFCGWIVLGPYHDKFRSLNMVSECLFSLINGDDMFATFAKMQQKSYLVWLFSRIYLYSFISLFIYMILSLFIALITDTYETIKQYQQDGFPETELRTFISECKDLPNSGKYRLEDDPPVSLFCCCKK

Bcl-2-related protein A1 = molecular target: T5, Bcl-2-related protein A1 (Mus musculus, UniProt Q07440); format: functional;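 also: confirmatory dose–response counterscreen on Bfl-1, used to check hits from a UBC13 polyubiquitin inhibitor campaign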
T5 sequence (Q07440 whole entry): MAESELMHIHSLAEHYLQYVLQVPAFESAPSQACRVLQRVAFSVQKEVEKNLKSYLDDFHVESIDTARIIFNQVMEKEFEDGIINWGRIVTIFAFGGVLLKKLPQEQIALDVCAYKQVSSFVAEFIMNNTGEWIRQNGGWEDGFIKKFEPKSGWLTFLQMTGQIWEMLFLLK

[5] = molecular target: T6, Ubiquitin-conjugating enzyme E2 N (Homo sapiens, UniProt P61088); format: functional
T6 sequence (P61088 whole entry): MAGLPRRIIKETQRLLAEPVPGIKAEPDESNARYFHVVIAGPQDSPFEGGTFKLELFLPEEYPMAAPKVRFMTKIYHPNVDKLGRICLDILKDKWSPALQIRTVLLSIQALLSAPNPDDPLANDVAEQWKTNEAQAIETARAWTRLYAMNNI

[6] = molecular target: T6, Ubiquitin-conjugating enzyme E2 N; format: functional; remark: listed apart in the source
[7] = molecular target: Protein phosphatase methylesterase 1 (Homo sapiens, UniProt Q9Y570); assay: inhibition of PME-1 probe labeling – gel-based ABPP, IC50, set 1, late-stage follow-up (AID 463130); format: functional
Fatty acid synthase [8] = molecular target: T7, Fatty acid synthase (Homo sapiens, UniProt P49327); assay: inhibition of human FAS-TE enzyme activity – biochemical, endpoint fluorescence intensity, uHTS hits, dose response (AID 624327); format: functional;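 also: fluorescence from hydrolysis of an O-methyl fluorescein acyl ester substrate by the enzyme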
T7 sequence (P49327 whole entry): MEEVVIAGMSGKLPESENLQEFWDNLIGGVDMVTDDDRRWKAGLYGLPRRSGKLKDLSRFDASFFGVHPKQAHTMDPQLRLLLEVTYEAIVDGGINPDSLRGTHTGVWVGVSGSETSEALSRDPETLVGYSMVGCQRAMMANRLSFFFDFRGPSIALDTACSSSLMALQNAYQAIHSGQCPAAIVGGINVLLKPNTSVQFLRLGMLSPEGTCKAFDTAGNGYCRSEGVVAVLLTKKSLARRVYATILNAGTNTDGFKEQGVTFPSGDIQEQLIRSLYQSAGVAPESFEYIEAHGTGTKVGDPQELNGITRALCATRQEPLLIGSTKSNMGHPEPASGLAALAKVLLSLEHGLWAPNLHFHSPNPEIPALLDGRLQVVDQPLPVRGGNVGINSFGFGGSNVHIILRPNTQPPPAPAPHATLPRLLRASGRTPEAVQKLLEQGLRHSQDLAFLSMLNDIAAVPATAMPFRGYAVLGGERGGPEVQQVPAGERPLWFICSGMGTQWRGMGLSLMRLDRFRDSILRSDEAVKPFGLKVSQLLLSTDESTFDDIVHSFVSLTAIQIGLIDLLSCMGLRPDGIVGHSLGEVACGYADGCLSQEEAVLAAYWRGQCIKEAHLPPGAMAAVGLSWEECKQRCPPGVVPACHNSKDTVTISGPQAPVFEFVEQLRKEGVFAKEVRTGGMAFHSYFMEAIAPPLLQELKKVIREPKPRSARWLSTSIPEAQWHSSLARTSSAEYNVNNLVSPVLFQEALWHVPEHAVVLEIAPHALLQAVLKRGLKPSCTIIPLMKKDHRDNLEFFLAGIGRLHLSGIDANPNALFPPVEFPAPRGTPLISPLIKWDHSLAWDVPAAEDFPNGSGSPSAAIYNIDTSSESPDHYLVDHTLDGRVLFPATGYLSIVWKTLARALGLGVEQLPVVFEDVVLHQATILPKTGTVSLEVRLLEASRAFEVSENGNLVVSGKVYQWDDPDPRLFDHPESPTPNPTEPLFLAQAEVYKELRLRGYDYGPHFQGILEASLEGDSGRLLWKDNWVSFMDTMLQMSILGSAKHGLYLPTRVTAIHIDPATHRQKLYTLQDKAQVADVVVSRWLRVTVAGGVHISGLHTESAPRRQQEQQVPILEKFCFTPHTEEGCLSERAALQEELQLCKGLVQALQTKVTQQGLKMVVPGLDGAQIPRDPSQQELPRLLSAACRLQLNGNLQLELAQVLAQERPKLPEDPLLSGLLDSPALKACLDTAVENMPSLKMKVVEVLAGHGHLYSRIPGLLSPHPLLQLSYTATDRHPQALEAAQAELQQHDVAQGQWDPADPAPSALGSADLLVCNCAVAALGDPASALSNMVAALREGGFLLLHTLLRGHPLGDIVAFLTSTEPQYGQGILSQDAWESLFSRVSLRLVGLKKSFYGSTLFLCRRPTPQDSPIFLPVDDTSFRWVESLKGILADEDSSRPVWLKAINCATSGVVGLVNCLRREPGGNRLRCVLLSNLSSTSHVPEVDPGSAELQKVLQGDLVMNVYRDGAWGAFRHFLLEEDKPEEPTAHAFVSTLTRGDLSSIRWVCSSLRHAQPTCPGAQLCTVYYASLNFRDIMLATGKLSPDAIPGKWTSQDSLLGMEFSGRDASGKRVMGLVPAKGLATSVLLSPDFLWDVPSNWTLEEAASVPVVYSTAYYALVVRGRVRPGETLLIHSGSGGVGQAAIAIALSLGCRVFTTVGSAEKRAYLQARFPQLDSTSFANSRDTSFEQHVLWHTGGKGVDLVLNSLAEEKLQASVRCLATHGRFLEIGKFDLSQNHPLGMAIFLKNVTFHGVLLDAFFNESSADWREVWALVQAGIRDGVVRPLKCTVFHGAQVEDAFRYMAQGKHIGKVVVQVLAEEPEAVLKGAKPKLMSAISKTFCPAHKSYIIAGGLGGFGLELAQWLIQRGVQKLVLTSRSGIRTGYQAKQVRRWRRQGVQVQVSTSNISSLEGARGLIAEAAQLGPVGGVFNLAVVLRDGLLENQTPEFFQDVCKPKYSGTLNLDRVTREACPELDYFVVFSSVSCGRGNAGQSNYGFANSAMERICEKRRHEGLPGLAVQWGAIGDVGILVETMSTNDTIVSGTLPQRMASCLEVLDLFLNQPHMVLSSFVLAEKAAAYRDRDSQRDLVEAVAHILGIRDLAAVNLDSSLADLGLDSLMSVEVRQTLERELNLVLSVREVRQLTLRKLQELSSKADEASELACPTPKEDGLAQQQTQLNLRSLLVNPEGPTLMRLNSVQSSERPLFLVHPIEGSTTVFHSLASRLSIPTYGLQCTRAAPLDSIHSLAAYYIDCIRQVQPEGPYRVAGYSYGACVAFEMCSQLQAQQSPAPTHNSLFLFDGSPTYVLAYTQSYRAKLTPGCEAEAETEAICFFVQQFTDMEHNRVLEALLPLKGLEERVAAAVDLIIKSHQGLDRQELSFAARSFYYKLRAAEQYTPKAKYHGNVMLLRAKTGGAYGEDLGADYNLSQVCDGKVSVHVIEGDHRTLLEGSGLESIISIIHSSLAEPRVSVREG

Fatty acid synthase [9] = molecular target: T7, Fatty acid synthase; assay: inhibition of human FAS-TE enzyme activity – biochemical, kinetic fluorescence intensity, dose response (AID 624326); format: functional;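 also: rate of fluorescence rise from hydrolysis of a fluorogenic O-methyl fluorescein ester substrate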
Coagulation factor XII = Coagulation factor XII (Homo sapiens, UniProt P00748); format: functional;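 also: activated factor XIIa alpha cleaving a fluorogenic AMC peptide substrate; inhibitor potency from loss of enzyme activity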
Cannabinoid receptor 2 [10] = molecular target: T8, Cannabinoid receptor 2 (Homo sapiens, UniProt P34972); assay: SAR analysis of antagonists of the Cannabinoid Receptor 2 using an Image-Based Assay - Set 2. [Related pubchem assays (depositor defined):AID1961, AID1965]; format: functional
T8 sequence (P34972 whole entry): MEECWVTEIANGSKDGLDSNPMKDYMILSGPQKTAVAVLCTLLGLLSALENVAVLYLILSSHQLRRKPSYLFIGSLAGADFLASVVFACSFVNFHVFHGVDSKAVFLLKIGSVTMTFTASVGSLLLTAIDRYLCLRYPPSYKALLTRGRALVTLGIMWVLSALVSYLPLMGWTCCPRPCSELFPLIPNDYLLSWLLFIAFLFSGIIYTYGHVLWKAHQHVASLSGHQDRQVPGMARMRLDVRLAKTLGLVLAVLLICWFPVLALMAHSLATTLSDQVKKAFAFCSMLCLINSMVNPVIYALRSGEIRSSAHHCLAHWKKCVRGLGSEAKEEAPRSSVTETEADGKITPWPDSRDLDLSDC

[11] = molecular target: G-protein coupled receptor 55 (Homo sapiens, UniProt Q9Y2T6); assay: SAR analysis of selective Agonists of GPR55 using an Image-Based Assay - Set 2. [Related pubchem assays (depositor defined):AID1961, AID1965]; format: functional
Cannabinoid receptor 2 [12] = molecular target: T8, Cannabinoid receptor 2; assay: SAR analysis of agonists of the Cannabinoid Receptor 2 using an Image-Based Assay - Set 2. [Related pubchem assays (depositor defined):AID1961, AID1965]; format: functional
[13] = molecular target: T9, G-protein coupled receptor 35 (Homo sapiens, UniProt Q9HC97); assay: SAR analysis of Agonists of the GPR35 Receptor using an Image-Based Assay - Set 3. [Related pubchem assays (depositor defined):AID1961, AID1965]; format: functional
T9 sequence (Q9HC97 whole entry): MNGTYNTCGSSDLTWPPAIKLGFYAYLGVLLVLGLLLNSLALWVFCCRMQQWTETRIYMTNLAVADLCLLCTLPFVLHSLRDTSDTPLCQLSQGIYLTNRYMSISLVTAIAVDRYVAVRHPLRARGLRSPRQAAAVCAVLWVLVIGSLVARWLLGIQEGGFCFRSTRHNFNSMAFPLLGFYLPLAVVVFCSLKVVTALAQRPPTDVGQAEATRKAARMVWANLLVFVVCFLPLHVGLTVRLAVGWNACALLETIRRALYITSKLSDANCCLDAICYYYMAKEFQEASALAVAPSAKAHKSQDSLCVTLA

Cannabinoid receptor 1 [14] = molecular target: T10, Cannabinoid receptor 1 (Homo sapiens, UniProt P21554); assay: SAR analysis of antagonists of the Cannabinoid Receptor 1 using an Image-Based Assay - Set 3. [Related pubchem assays (depositor defined):AID1961, AID1965]; format: functional
T10 sequence (P21554 whole entry): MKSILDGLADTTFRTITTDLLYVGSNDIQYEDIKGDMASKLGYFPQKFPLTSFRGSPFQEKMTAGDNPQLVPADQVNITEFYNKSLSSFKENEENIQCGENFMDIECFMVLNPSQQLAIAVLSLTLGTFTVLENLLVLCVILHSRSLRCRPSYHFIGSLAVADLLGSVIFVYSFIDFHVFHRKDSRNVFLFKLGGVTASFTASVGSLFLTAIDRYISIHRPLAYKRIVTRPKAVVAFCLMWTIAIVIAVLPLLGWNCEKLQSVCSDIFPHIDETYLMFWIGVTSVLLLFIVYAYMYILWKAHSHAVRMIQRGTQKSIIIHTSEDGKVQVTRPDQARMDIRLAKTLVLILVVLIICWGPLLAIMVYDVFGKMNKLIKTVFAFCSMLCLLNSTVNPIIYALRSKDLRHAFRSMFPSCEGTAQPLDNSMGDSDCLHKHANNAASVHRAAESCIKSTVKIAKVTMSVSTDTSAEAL

Cannabinoid receptor 1 [15] = molecular target: T10, Cannabinoid receptor 1; assay: SAR analysis of agonists of the Cannabinoid Receptor 1 using an Image-Based Assay - Set 3. [Related pubchem assays (depositor defined):AID1961, AID1965]; format: functional
[16] = molecular target: T9, G-protein coupled receptor 35; assay: SAR analysis of Antagonists of the GPR35 Receptor using an Image-Based Assay - Set 4. [Related pubchem assays (depositor defined):[…]]; format: functional
[17] = tested on: Streptococcus sp. 'group A'; assay: Streptococcus pyogenes SK(-)GAS viability under kanamycin – luminescence, BacTiterGlo, confirmation, counter-screen for streptokinase expression inhibitor project, dose response (AID 1900); format: functional, organism-based
Streptokinase A = molecular target: T11, Streptokinase A (Streptococcus pyogenes serotype M1, UniProt P10520); assay: viability-normalized secreted streptokinase activity reduction – plasminogen activation absorbance, OD405, dose response (AID 1914); format: functional, Streptococcus pyogenes M1 GAS;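 also: secreted streptokinase activity via plasminogen activation per viability signal from cell pellet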
T11 sequence (P10520 whole entry): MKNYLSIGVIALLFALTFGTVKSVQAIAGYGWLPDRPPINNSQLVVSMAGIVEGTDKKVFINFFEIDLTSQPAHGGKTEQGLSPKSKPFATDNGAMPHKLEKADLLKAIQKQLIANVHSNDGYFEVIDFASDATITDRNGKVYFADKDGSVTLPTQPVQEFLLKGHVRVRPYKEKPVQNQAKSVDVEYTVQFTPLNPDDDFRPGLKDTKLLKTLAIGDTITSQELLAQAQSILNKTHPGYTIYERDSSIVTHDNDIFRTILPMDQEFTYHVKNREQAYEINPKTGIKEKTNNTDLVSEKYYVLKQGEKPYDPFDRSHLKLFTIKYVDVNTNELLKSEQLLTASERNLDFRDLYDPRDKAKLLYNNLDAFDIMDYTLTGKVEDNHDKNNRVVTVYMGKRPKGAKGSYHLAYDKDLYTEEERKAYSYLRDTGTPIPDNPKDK

[18] = HPDE-C7 pancreatic duct cell viability loss – fluorescence, HTS (AID 430); format: functional, cell-based; settings: Homo sapiens
[19] = viability loss of HPDE-C7K cells – cell-based, fluorescence, HTS, primary screen (AID 431); format: functional; settings: Homo sapiens
Streptococcus = assay: GAS UMAA2166 growth inhibition – luminescence, BacTiterGlo, counter-screen for streptokinase expression inhibitor project, dose response (AID 1915); format: functional, organism-based;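 also: potency for reduction of bacterial viability or growth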
[20] = molecular target: DNA damage-inducible transcript 3 protein (Mus musculus, UniProt P35639); format: functional, Cricetulus griseus
Chain of DNA damage-inducible transcript 3 protein (P35639 whole entry): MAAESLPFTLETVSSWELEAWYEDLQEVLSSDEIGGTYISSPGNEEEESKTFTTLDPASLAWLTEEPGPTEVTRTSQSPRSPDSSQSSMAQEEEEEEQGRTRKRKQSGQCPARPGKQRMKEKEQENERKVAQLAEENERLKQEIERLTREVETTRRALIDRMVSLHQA

Beta-galactosidase = Beta-galactosidase (Escherichia coli, UniProt Q8VNN2); assay: Dose response counterscreen for EBI2 assay utilizing the enzyme, b-galactosidase.; format: functional

CC1=CC(c2ccc(Cl)cc2)N2NC(NS(=O)(=O)c3ccc(C)cc3)=NC2=N1 (stereo not drawn)
IC50 (Aminopeptidase N): 104 µM (active) | IC50 [1]: 23.6 µM (active) | IC50 [2]: 31.5 µM (active)

OC1CN=C2Sc3ccccc3N2C1 (stereo not drawn)
EC50 [3]: > 100 µM (inactive) | IC50 [4]: 15.1 µM (active)

CCN1C(=O)/C(=C/c2ccc(N3CCCC3)cc2)NC1=S
EC50 (Ion channel NompC): 1.28 µM (active) | EC50 (Mucolipin-3): 2.43 µM (active)

Cc1ccc(C(=O)NC(C)c2ccc(-n3ccnc3)cc2)cc1S(=O)(=O)N1CCOCC1 (stereo not drawn)
IC50 (Bcl-2-related protein A1): > 20 µM (inactive) | IC50 [5]: 17.3 µM (active) | IC50 [6]: 11.5 µM (active)

COC(=O)N1C(=O)[C@](c2ccc(OC)cc2)(C(C)C)N1C(=O)OC
IC50 [7]: 0.069 µM (active) | IC50 (Fatty acid synthase [8]): 3.86 µM (active) | IC50 (Fatty acid synthase [9]): 2.06 µM (active)

COC(=O)c1ccc(C(C(=O)NC2CCCCC2)N(CCN2CCOCC2)C(=O)Cc2cccs2)cc1 (stereo not drawn)
IC50 (Coagulation factor XII): > 50 µM (inactive)

Cc1cc2cc3c(cc2n2c(SCC(=O)Nc4nc(-c5ccccc5)cs4)nnc12)OCCO3
IC50 (Cannabinoid receptor 2 [10]): > 32 µM (inactive) | EC50 [11]: 4.42 µM (active) | EC50 (Cannabinoid receptor 2 [12]): > 32 µM (inactive) | EC50 [13]: > 32 µM (inactive) | IC50 (Cannabinoid receptor 1 [14]): 12.7 µM (inactive) | EC50 (Cannabinoid receptor 1 [15]): > 32 µM (inactive) | IC50 [16]: > 32 µM (inactive)

Nc1c(S(=O)(=O)c2ccccc2)c2nc3ccccc3nc2n1/N=C/c1cccc(O)c1
EC50 [17]: 7.72 µM (active) | EC50 (Streptokinase A): 23.6 µM (active) | EC50 [18]: 2.92 µM (active) | EC50 [19]: 2.83 µM (active) | EC50 (Streptococcus): 75.4 µM (active) | Absolute IC50 (CHOP) [20]: 10 µM | IC50 (Beta-galactosidase): > 80 µM (inactive)
